Measured values: patent publication US6194173A, “Binding proteins for phosphoinositides, GRP1 or general receptor 1 for phophoinositide” (priority 1999, dated 2001)
Entries after “also recorded” stand apart in the source; their conditions may differ.

Legend:
[1] = target: T1, GRP (Mus musculus, UniProt O08967); test: Effect of phosphoinositides on GRP-catalyzed ARF1 guanine nucleotide exchange; assay type: biochemical; details: for stimulation of ARF1 exchange activity in the presence of GRP: 25 μM lipid, 0.15 μM GRP
T1 construct: GST (N, cleaved yes); made in house; host or cells: GRP from pGEX-4T; ARF1 from baculovirus-infected Sf-9 cells
T1 sequence (O08967 1-399): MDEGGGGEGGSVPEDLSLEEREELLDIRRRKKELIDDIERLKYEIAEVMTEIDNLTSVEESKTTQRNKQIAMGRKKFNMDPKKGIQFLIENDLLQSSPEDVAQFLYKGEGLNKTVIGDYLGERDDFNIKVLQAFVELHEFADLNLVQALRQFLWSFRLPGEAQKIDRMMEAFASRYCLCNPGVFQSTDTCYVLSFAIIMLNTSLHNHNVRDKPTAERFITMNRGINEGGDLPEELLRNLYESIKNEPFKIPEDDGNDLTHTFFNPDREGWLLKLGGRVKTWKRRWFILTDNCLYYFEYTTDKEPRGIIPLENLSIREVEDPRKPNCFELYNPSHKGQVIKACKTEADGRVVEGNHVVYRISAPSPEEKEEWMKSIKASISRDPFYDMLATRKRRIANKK

[2] = test system: GRP Sec7 homology domain; test: Effect of phosphoinositides on ARF1 exchange catalyzed by the GRP Sec7 domain; assay type: biochemical, mouse; details: 25 μM PtdIns(3,4,5)P3
[3] = target: T2, PH domain of GRP (Mus musculus, UniProt O08967); test: Competition for [3H]dioctanoyl PtdIns(3,4,5)P3 binding to the PH domain of GRP; design: GST fused to the PH region of GRP (amino acids 239-399); made in house; host or cells: bacteria; details: competition for [^3 H]dioctanoyl PtdIns(3,4,5)P3
T2 sequence (O08967 239-399): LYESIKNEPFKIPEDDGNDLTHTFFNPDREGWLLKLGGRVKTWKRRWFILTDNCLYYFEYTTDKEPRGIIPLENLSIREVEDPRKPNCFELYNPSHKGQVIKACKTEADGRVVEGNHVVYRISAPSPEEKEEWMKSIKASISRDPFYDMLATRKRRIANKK
Procedure: Binding assays were performed as described in (Rameh, L. E. et al., J. Biol. Chem., In Press). Briefly, GST fused to the PH region of GRP (amino acids 239-399) was bound to glutathione immobilized on agarose beads (Sigma). Synthetic [^3 H]-labeled diotanoyl PtdIns(3,4,5)P3 was added, and after one hour the beads were separated from the supernatant by centrifugation. The amount of [^3 H]-PtdIns(3,4,5)P3 bound to the PH domain was calculated by subtracting the amount of free [^3 H] present in supernatants from GST-GRP from the amount of free [^3 H] in supernatants from control GST. The data was fitted to the equation [bound]=Bmax×[free]/(KD + [free]) by least squares curve fit. For the competition assays the beads containing the GST-fusion proteins were incubated with 2.5 μM[^3 H]-labeled dioctanoyl PtdIns(3,4,5)P3 bound was calculated based on the amount of [^3 H] bound to the beads in the absence of competitor. The total [^3 H] bound to the GST control was less then 0.5% of the total [^3 H] bound to GRP PH domain. The data was fitted to the equation % bound=100-n×L/Klapp +L) where n is the % specific binding, L is the concentration of unlabeled lipid added and Klapp is the apparent competitive dissociation constant. The rations of the apparent dissociation constants accurately reflect the ratios of the true dissociation constants under the present experimental conditions (Rameh, L. E. et al., J. Biol. Chem., In Press).
The data depicted in FIG. 8 indicate that receptor signaling through PI3-kinases, which generates PtdIns(3,4,5)P3, may specifically regulate ARF proteins through GRP. In order to further test this, the relative binding affinities of PtdIns(3,4,5)P3 versus PtdIns (4,5)P2, which is constitutively present in cell membranes, for the PH domain of GRP were determined. A GST fusion protein of the PH domain of GRP was incubated with various concentrations of synthetic [^3 H]dioctanoyl PtdIns(3,4,5)P3 and binding was determined (FIG. 9A). These experiments show high affinity binding of this polyphosphoinositide,with a calculated Kd=0.5 μM.

- maximal activation of GRP-catalyzed ARF1 exchange ([1]; 0.1 μM GRP1, 40 minutes): 3-4 fold
- EC50 ([1]; 0.1 μM GRP1, 40 minutes, read-out: half maximal stimulation of GRP-catalyzed ARF1 [^35 S]GTPγS binding): ~1000 nM
- stimulation of ARF1 exchange activity in the presence of GRP ([1]; 0.1% cholate (high negative charge)): stimulated
- KI(app), fold lower than for PtdIns(4,5)P2 [3]: 10-20 fold
Substance: Phosphatidylinositol (3,4,5)-Trisphosphate [PtdIns(3,4,5)P3]
- stimulation of ARF1 exchange activity in the presence of GRP ([1]; 0.05% cholate and 0.05% CHAPS (low negative charge)): selectively stimulated; also recorded: Selectivity
- effect on ARF exchange activity catalyzed by the GRP Sec7 homology domain [2]: no effect
